Our source for the half-life values is US9133139B2, “Fluoroalkyl-1,4-benzodiazepinone compounds” (BRISTOL-MYERS SQUIBB COMPANY, priority 2012, dated 2015).

Some results are limits rather than exact numbers.

A short description of this data set: Human metabolic stability half-life assay (liver microsomes). It counts as in vitro ADME. The settings on record: pH 7.4, human liver microsomes, CYP-mediated (NADPH-dependent), 0.5 μM compound, 45-minute time course, read-out: HLM (t1/2, min). On the procedure: Metabolic Stability Half-Life Panel
Result Interpretation Guideline
Incubation with Liver Microsomes
Sample Analysis—Instrumentation
On the technique in general: Microsomes from liver hold many membrane-bound enzymes, among them those of drug oxidation.
In the case of `CCC[C@H](C(N)=O)[C@@H](CC(C)C)C(=O)N[C@H]1N=C(c2ccccc2)c2ccccc2N(C)C1=O` [Comparative Compound 37, reference compound], the half-life at 0.5 μM was at most 8 min.

With `C=CC[C@H](C(N)=O)[C@@H](CC(C)C)C(=O)N[C@H]1N=C(c2ccccc2)c2cc(Cl)ccc2N(C)C1=O` [Comparative Compound 38, reference compound], the half-life at 0.5 μM is at most 8 min.

With `CCCC[C@H](C(N)=O)[C@@H](CC(C)C)C(=O)N[C@H]1N=C(c2ccc(Cl)cc2)c2ccccc2N(C)C1=O` [Comparative Compound 39, reference compound], the half-life at 0.5 μM is at most 8 min.

Take `C=CC[C@H](C(N)=O)[C@@H](CC(C)C)C(=O)N[C@H]1N=C(c2ccccc2)c2ccccc2N(CCC)C1=O` [Comparative Compound 40, reference compound]: the half-life at 0.5 μM is at most 8 min.

Consider `Cc1nocc1[C@H](C(N)=O)[C@@H](CCC(F)(F)F)C(=O)N[C@H]1N=C(c2ccccc2)c2ccccc2N(C)C1=O` [Example 6, (2R,3R)—N1-((S)-1-Methyl-2-oxo-5-phenyl-2,3-dihydro-1H-benzo[e][1,4]diazepin-3-yl)-3-(3-methylisoxazol-4-yl)-2-(3,3,3-trifluoropropyl)succinamide], for which the half-life at 0.5 μM is at least 30 min.

Take `Cc1nocc1[C@H](C(N)=O)[C@@H](CCC(F)(F)F)C(=O)N[C@H]1N=C(c2ccccc2)c2ccccc2NC1=O` [Example 9]: the half-life at 0.5 μM is at least 30 min.

Take `Cc1nocc1[C@H](C(N)=O)[C@@H](CCC(F)(F)F)C(=O)N[C@H]1N=C(c2ccccc2)c2cc3c(cc2NC1=O)OCO3` [Example 13, (2R,3R)-3-(3-Methyl-4-isoxazolyl)-N-((7S)-6-oxo-9-phenyl-6,7-dihydro-5H-[1,3]dioxolo[4,5-h][1,4]benzodiazepin-7-yl)-2-(3,3,3-trifluoropropyl)succinamide]: the half-life at 0.5 μM was at least 30 min.

For `COc1ccc(N2C(=O)[C@@H](NC(=O)[C@H](CCC(F)(F)F)[C@@H](C(N)=O)c3conc3C)N=C(c3ccccc3)c3ccccc32)nc1` [Example 14, (2R,3R)—N-((3S)-1-(5-Methoxy-2-pyridinyl)-2-oxo-5-phenyl-2,3-dihydro-1H-1,4-benzodiazepin-3-yl)-3-(3-methyl-4-isoxazolyl)-2-(3,3,3-trifluoropropyl)succinamide], the half-life at 0.5 μM is at least 30 min.

For the molecule `Cc1nocc1[C@H](C(N)=O)[C@@H](CCC(F)(F)F)C(=O)N[C@H]1N=C(c2ccccc2)c2cccc(Cl)c2NC1=O` [Example 17, (2R,3R)—N1-((S)-9-Chloro-2-oxo-5-phenyl-2,3-dihydro-1H-benzo[e][1,4]diazepin-3-yl)-3-(3-methylisoxazol-4-yl)-2-(3,3,3-trifluoropropyl)succinamide], the half-life at 0.5 μM was at least 30 min.

For the molecule `COc1cccc2c1NC(=O)[C@@H](NC(=O)[C@H](CCC(F)(F)F)[C@@H](C(N)=O)c1conc1C)N=C2c1ccccc1` [Example 20, (2R,3R)—N1-((S)-9-Methoxy-2-oxo-5-phenyl-2,3-dihydro-1H-benzo[e][1,4]diazepin-3-yl)-3-(3-methylisoxazol-4-yl)-2-(3,3,3-trifluoropropyl)succinamide], the half-life at 0.5 μM was at least 30 min.

In the case of `Cc1cccc2c1NC(=O)[C@@H](NC(=O)[C@H](CCC(F)(F)F)[C@@H](C(N)=O)c1conc1C)N=C2c1cccc(C(F)(F)F)c1` [Example 28, (2R,3R)—N1-((S)-9-Methyl-2-oxo-5-(3-(trifluoromethyl)phenyl)-2,3-dihydro-1H-benzo[e][1,4]diazepin-3-yl)-3-(3-methylisoxazol-4-yl)-2-(3,3,3-trifluoropropyl)succinamide], the half-life at 0.5 μM is at least 30 min.

In the case of `Cc1cccc2c1NC(=O)[C@@H](NC(=O)[C@H](CCC(F)(F)F)[C@@H](C(N)=O)c1ccccc1)N=C2c1cccc(C(F)(F)F)c1` [Example 29, (2R,3R)—N1-((S)-9-Methyl-2-oxo-5-(3-(trifluoromethyl)phenyl)-2,3-dihydro-1H-benzo[e][1,4]diazepin-3-yl)-3-phenyl-2-(3,3,3-trifluoropropyl)succinamide], the half-life at 0.5 μM is at least 30 min.
